{"source": "patent US20150272939A1", "about": "“Identification of Small Molecule Inhibitors of Jumonji AT-Rich Interactive Domain 1A (JARID1A) and 1B (JARID1B) Histone Demethylase” (Yale University, priority 2012, published 2015)", "key": {"JARID1C": {"biological_target": "T1, JARID1C (Homo sapiens, UniProt P41229)", "T1 construct": "FLAG (N); made in house; host or cells: Sf21 insect cells (baculovirus)", "T1 sequence (P41229 whole entry)": "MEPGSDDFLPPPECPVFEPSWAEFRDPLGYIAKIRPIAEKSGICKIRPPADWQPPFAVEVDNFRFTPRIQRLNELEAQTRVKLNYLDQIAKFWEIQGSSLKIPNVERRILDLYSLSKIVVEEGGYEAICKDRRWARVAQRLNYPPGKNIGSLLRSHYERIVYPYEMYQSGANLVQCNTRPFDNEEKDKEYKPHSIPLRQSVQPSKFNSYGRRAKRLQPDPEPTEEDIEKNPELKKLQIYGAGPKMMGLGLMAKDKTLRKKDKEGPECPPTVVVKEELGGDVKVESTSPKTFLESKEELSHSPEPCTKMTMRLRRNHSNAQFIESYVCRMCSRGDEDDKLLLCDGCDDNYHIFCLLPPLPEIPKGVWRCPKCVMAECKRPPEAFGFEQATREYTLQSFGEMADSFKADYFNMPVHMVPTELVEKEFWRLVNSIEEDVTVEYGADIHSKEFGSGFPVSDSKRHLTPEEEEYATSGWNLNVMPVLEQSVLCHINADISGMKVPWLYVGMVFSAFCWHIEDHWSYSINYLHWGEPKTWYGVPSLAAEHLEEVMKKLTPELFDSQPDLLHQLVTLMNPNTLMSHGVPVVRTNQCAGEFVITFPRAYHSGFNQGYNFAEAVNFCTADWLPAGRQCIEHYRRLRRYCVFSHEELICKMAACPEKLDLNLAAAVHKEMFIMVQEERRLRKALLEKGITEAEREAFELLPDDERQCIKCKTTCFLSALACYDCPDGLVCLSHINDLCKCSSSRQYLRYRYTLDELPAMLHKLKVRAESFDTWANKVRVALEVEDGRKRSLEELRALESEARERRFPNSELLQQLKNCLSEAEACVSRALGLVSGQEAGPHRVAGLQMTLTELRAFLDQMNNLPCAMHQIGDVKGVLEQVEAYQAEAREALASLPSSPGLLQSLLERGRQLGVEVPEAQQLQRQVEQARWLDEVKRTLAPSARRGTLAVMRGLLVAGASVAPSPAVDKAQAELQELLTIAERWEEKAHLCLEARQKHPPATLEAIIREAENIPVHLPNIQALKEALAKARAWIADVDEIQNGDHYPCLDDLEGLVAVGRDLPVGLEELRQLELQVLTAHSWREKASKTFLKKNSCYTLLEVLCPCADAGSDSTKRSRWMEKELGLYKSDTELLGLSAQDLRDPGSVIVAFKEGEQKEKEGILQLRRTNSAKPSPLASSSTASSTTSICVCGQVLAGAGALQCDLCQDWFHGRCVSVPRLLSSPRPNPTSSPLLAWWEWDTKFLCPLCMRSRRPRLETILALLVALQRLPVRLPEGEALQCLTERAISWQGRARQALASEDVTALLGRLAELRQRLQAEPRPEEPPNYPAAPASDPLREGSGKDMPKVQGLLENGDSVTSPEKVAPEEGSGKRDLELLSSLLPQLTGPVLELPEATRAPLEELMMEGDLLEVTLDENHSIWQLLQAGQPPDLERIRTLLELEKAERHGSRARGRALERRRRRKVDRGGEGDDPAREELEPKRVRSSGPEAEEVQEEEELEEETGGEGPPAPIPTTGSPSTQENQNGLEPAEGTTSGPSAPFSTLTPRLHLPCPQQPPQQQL", "assay": "FLAG-JARID1C histone demethylase assay with AlphaScreen detection", "type": "biochemical", "description": "(§1) Histone demethylase assays were performed in 384 well white plates (Corning 3574). Demethylase buffer conditions for FLAG-JARID1B were as follows: 10 μM α-KG, 100 μM ascorbate, 50 μM (NH4)2Fe(SO4)2, 50 mM Hepes (pH 7.5), 0.01% (v/v) Tween 20, and 0.1% (w/v) bovine serum albumin. The demethylase reactions included 64 nM bio-H3K4me3 peptide alone or in the presence of 4 nM FLAG-JARID1B enzyme in a 10 μl reaction at 25° C. for 30 minutes. As a positive control, 64 nM bio-H3K4me2 peptide was assayed in the absence of enzyme. Assay conditions for FLAG-JARID1C is the same as for FLAG-JARID1B except that 20 nM enzyme was used. For FLAG-JARID1A, the demethylase buffer was similar to FLAG-JARID1B, except that 125 μM α-KG and 13 nM FLAG-JARID1A enzyme were used. The His-FLAG-UTX and FLAG-JMJD3 demethylase assays also employed the same buffer conditions as for FLAG-JARID1B, with 64 nM bio-H3K27me3 peptide assayed with or without 25 nM His-FLAG-UTX enzyme or 50 nM FLAG-JMJD3 (BPS Bioscience, 50115), and 64 nM bio-H3K27me2 peptide as a positive control. JARID1A, JARID1C, UTX, and JMJD3 histone demethylase assays proceeded at 37° C. for 1 hour.\n(§2) The AlphaScreen General IgG (Protein A) detection kit was obtained from PerkinElmer. Demethylated H3K4 products were detected using AlphaScreen antibody/bead mix containing 7.5 mM ethylenediaminetetraacetic acid (EDTA) and 0.15 μg/ml anti-H3K4me1 antibody in a final volume of 20 μl. For detection of demethylated H3K27 products, the AlphaScreen antibody/bead mix containing 7.5 mM EDTA and 0.15 μg/ml anti-H3K27me2 antibody in a final volume of 20 μl. The luminescence signal was measured using the Envision (PerkinElmer) or Pherastar (BMG Labtech) Platereaders."}, "[1]": {"test_system": "SKBR3-R cells (trastuzumab resistant)", "assay": "WST-1 cell proliferation assay", "type": "cell-based", "settings": "30 μM"}, "JARID1B": {"biological_target": "T2, JARID1B (Homo sapiens, UniProt Q9UGL1)", "T2 construct": "The FLAG tagged full length JARID1B enzyme was expressed in Sf21 insect cells using FLAG-JARID1B baculoviruses; FLAG (N); made in house; host or cells: Sf21 insect cells (baculovirus)", "T2 sequence (Q9UGL1 whole entry)": "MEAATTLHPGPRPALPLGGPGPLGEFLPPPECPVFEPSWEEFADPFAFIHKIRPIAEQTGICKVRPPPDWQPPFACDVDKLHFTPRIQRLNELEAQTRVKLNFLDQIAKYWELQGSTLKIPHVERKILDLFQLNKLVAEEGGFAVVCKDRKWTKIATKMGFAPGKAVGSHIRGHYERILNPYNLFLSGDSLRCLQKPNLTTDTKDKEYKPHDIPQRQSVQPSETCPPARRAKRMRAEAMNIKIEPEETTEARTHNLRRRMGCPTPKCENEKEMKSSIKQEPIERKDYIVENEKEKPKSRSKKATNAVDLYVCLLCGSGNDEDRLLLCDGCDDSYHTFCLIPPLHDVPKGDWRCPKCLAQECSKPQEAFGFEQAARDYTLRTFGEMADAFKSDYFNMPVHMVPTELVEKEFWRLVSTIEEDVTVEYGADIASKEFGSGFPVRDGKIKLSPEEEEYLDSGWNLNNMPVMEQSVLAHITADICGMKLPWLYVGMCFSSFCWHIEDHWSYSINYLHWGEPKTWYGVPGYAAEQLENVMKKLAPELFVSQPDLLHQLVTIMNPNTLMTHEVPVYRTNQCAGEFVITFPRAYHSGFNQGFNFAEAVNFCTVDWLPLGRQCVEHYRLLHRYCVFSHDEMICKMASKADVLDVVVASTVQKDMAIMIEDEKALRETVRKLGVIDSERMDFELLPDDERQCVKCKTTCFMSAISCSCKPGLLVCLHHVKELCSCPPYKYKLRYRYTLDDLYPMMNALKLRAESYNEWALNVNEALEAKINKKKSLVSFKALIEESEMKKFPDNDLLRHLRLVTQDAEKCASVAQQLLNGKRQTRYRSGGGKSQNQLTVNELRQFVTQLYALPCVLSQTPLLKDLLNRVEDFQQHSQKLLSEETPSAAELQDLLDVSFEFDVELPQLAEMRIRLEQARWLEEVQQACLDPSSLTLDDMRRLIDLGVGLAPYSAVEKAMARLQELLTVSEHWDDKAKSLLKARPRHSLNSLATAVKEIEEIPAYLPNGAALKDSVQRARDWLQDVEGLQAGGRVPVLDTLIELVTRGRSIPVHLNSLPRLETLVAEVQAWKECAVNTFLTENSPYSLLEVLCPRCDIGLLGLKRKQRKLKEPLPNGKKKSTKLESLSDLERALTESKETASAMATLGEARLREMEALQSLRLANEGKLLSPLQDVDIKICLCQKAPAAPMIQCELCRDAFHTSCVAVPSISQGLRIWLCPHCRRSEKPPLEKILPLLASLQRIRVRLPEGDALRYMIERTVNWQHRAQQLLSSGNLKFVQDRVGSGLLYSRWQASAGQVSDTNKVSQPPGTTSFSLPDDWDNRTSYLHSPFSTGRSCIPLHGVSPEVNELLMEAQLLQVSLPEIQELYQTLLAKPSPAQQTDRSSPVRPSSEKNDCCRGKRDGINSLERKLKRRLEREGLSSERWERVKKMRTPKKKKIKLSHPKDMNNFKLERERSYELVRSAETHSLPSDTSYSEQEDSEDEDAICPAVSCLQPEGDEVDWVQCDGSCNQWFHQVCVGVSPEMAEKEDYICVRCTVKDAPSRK", "assay": "FLAG-JARID1B histone demethylase assay with AlphaScreen detection (HTS and dose response)", "type": "biochemical"}, "YURIF melanoma cells": {"test_system": "YURIF melanoma cells", "assay": "WST-1 cell proliferation assay", "type": "cell-based, human", "settings": "0, 10 and 30 μM", "description": "(§3) The colorimetric assay (WST-1 reagent) from Roche (11644807001) was performed in 96 well white clear bottom plates (Costar, 3610). 1,000 cells were seeded per well (in quadruplicate) overnight, and PBIT was added to the cells to the indicated concentration for 72 hrs. 0.01% DMSO was included as the control. The WST-1 reagent was added (5 μl per well) for 4 hrs, and OD 440 nm absorbance (which reflects the number of viable cells) was measured with the BioTek Synergy Mx Platereader.\n(§4) A panel of mouse and human melanoma cells was treated with 0, 10 and 30 μM PBIT and their proliferation rates were assessed using WST-1 assays."}, "YULAC melanoma cells": {"test_system": "YULAC melanoma cells", "assay": "WST-1 cell proliferation assay", "type": "cell-based, human", "settings": "0, 10 and 30 μM", "description": "as §3, §4"}, "YUAME melanoma cells": {"test_system": "YUAME melanoma cells", "assay": "WST-1 cell proliferation assay", "type": "cell-based, human", "settings": "0, 10 and 30 μM", "description": "as §3, §4"}, "JMJD2E": {"biological_target": "T3, JMJD2E (Homo sapiens, UniProt B2RXH2)", "T3 sequence (B2RXH2 1-337 limits assumed)": "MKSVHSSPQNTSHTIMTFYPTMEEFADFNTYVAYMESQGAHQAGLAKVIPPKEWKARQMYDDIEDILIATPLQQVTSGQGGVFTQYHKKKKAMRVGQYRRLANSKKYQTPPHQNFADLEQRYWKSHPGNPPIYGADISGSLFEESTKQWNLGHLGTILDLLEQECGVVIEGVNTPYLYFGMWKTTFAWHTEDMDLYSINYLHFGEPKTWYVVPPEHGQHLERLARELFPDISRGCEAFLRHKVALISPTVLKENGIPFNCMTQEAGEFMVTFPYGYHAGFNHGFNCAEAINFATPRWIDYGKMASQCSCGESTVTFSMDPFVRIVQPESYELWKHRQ", "settings": "King et al., 2010; cited from earlier work"}, "UTX": {"biological_target": "T4, UTX (Homo sapiens, UniProt O15550)", "T4 construct": "His (N); FLAG (N); made in house; host or cells: Sf21 insect cells (baculovirus)", "T4 sequence (O15550 whole entry)": "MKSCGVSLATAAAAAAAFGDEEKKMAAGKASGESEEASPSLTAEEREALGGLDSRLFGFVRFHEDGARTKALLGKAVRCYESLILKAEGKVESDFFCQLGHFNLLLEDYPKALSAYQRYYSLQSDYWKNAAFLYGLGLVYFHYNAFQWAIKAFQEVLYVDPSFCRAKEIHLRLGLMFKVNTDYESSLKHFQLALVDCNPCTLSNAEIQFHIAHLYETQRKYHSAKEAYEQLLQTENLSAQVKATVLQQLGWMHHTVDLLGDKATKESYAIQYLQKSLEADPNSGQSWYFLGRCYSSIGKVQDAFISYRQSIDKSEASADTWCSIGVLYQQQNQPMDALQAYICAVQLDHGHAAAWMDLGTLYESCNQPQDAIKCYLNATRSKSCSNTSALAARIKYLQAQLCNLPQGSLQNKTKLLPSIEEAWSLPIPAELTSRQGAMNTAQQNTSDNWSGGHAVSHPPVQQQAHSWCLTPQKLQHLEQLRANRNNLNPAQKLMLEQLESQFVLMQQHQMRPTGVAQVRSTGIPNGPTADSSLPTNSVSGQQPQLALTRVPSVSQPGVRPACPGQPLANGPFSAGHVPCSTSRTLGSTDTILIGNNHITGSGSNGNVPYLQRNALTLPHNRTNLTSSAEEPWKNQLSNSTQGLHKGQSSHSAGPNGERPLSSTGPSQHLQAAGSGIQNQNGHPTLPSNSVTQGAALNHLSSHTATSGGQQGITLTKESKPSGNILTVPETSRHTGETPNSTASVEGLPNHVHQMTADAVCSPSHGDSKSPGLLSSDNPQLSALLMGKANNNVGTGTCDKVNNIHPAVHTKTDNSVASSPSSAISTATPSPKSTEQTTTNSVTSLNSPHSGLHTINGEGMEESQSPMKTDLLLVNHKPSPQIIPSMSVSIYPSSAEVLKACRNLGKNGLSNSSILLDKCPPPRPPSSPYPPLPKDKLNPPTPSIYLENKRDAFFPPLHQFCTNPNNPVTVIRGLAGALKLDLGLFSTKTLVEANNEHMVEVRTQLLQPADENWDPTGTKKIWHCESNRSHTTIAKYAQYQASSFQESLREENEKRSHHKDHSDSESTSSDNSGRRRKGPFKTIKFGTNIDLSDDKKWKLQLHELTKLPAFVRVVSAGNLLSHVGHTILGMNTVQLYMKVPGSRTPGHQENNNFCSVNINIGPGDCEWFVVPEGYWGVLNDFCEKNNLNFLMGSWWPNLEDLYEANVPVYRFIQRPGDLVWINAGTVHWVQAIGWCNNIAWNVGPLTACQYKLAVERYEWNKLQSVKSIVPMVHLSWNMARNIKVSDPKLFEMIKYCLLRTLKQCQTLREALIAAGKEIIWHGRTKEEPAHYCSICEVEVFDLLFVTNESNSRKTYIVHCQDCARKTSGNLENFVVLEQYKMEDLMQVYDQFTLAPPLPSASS", "assay": "His-FLAG-UTX H3K27me3 demethylase assay with AlphaScreen detection", "type": "biochemical", "settings": "compound 10 μM, 64 nM bio-H3K27me3 peptide", "description": "as §1, with “The His-FLAG-UTX and FLAG-JMJD3 demethylase assays also employed the same buffer conditions as for FLAG-JARID1B, with 64 nM bio-H3K27me3 peptide assayed with or without 25 nM His-FLAG-UTX enzyme or 50 nM FLAG-JMJD3 (BPS Bioscience, 50115), and 64 nM bio-H3K27me2 peptide as a positive control. JARID1A, JARID1C, UTX, and JMJD3 histone demethylase assays proceeded at 37° C. for 1 hour.” left out\nas §2, with “For detection of demethylated H3K27 products, the AlphaScreen antibody/bead mix containing 7.5 mM EDTA and 0.15 μg/ml anti-H3K27me2 antibody in a final volume of 20 μl.” left out"}, "[2]": {"test_system": "SKBR3-S cells (trastuzumab sensitive)", "assay": "WST-1 cell proliferation assay", "type": "cell-based", "settings": "30 μM", "description": "as §3"}, "[3]": {"settings": "compound 10 μM, 64 nM bio-H3K4me3 peptide"}}, "note": "“Also recorded” adds a separate entry of the source. Like-named read-outs stand apart in the source and are kept apart here.", "data": [{"smiles": "Cc1ccc(-n2sc3ccccc3c2=O)cc1", "note": "[PBIT, 2-4(4-methylphenyl)-1,2-benzisothiazol-3(2H)-one]", "values": [{"measurement": "JARID1C demethylase activity", "setting": "JARID1C; [3]", "result": "inhibited"}, {"measurement": "IC50", "setting": "JARID1C; dose response, read-out: IC50 against JARID1C", "result": 4.9, "unit": "µM"}, {"measurement": "cell proliferation (WST-1)", "setting": "[1]", "result": "killed most"}, {"measurement": "inhibition of JARID1B (maximum)", "setting": "JARID1B", "result": "up to 95%"}, {"measurement": "IC50", "setting": "JARID1B; Fe (II) concentration not stated, read-out: IC50 against JARID1B", "result": "~3", "unit": "µM"}, {"measurement": "JARID1B demethylase activity", "setting": "JARID1B; [3]", "result": "inhibited"}, {"measurement": "IC50", "setting": "JARID1B; dose response at 15 μM (low) Fe (II), read-out: IC50 (μM) low Fe (II)", "result": 3.17, "unit": "µM"}, {"measurement": "IC50", "setting": "JARID1B; dose response at 50 μM (high) Fe (II), read-out: IC50 (μM) high Fe (II)", "result": 2.78, "unit": "µM"}, {"measurement": "sensitivity of proliferation to treatment (WST-1)", "setting": "YURIF melanoma cells", "result": "least sensitive"}, {"measurement": "sensitivity of proliferation to treatment (WST-1)", "setting": "YULAC melanoma cells", "result": "sensitive"}, {"measurement": "sensitivity of proliferation to treatment (WST-1)", "setting": "YUAME melanoma cells", "result": "sensitive"}, {"measurement": "IC50", "setting": "JMJD2E", "result": 28, "unit": "µM"}, {"measurement": "UTX demethylase activity", "setting": "UTX", "result": "minimal effect; also recorded: did not inhibit"}, {"measurement": "cell proliferation (WST-1)", "setting": "[2]", "result": "small inhibitory effects"}]}]}
